From patent US10285977B2, “Compositions and methods for treating alopecia” (David Weinstein Consulting, Inc., priority 2015, dated 2019)

Legend:
[1] = test system: androgenic alopecia; test: person with androgenic alopecia treated topically with RT175 and RT175/minoxidil; format: in vivo, human; conditions: 4 months; 120 ng/mL RT175, 1 mL twice daily on crown
Protocol: The subject went on treatment holiday for 1 month, before beginning treatment with 120 ng/mL of RT175 and 5% w/v minoxidil in 30% w/v ethanol, 50% w/v propylene glycol and 20% w/v water. FIG. 4(c) depicts the subjects scalp before initiation of the second round of treatment.

[2] = biological target: T1, FK506 binding protein 4 (“FKBP52”) (Homo sapiens, UniProt Q02790); conditions: cited from earlier work
T1 sequence (Q02790 1-459): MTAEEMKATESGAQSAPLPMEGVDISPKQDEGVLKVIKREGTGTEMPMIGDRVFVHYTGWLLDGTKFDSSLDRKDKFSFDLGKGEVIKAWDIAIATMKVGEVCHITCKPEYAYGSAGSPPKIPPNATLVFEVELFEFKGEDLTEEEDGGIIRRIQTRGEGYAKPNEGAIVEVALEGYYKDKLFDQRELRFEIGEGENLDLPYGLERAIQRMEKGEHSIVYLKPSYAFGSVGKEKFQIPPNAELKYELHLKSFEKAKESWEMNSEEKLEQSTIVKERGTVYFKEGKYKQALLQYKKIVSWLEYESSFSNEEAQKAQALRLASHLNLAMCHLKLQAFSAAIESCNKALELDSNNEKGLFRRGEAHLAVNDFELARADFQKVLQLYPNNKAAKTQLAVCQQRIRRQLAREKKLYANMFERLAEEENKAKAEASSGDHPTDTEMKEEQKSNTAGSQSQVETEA

[3] = test system: hair growth; conditions: shaved mice; cited from earlier work
[4] = test system: scalp; test: Scalp closure following craniotomy in rats treated with RT175; format: in vivo; conditions: RT175 treatment
Excerpt: Rats which had undergone brain surgery to test RT175 mediated regeneration of the brain following stroke. Following surgery, the scalp was closed.

[5] = test system: mouse dorsal skin; test: Punch biopsies of mouse dorsal skin treated topically with RT175; format: in vivo, mice
Protocol: Mice underwent 5 millimeter, full thickness, punch biopsies of their dorsal skin. Mice were then treated topically with 120 nanograms (“ng”) of RT175, daily.

[6] = biological target: T2, FKBP52 (Homo sapiens, UniProt Q02790); conditions: fibroblasts treated for 2 hours; cited from earlier work
T2 construct: endogenous in cells
T2 sequence (Q02790 1-459): T1 sequence (Q02790 1-459)

[7] = test system: skin lesions; test: Skin lesions in pig treated topically with RT175; format: in vivo; conditions: single pig, 120 ng topically daily
Protocol: A single pig underwent bilateral, slit thickness, skin surgery leaving lesions on opposite sides of the pig. One of these lesions was then treated topically with 120 ng of RT175, daily. The other lesion was treated with vehicle only. […] See FIG. 3 and compare 3(b) to 3(a). The de novo hair growth is consistent with the regeneration of the upper hair follicles, most of which would have been removed as the […] sliced through the skin in creating the split thickness wounds.

[8] = test system: hair; conditions: rats after craniotomy prior to neurosurgery; cited from earlier work
[9] = test system: androgenetic alopecia; conditions: at 6-months, cited from earlier work
[10] = test system: dermabrasion lesions of dorsal skin; test: Dermabrasion lesions of dorsal skin of mice treated with RT1061; format: in vivo, ICR mice; conditions: 5 μL of 100 nanomolar topically once daily, 10 days
Protocol: Retired ICR breeder mice of both sexes with weight between 45 and 50 grams were shaved and rasped to induce dermabrasion lesions. The animals were then randomly assigned (5 per treatment arm) to one of two groups to receive either 5 μL of 100 nanomolar RT1061 or a vehicle control. RT1061 or vehicle control was applied topically to the lesion site once each day including immediately after dermabrasion.

In the case of `CCC(C)(C)C(=O)C(=O)N1CCC[C@H]1C(=O)O` [RT175], the hair growth [1] is listed as “absence of hair growth”, the binding affinity [2] is listed as “high affinity” and the hair growth [3] is listed as “induce hair growth”. For the same molecule, the “scalp closure after brain surgery” value [4] was “full scalp closure”, the “healing of the wound site versus vehicle” value ([5]; 5 days after punch biopsy, 120 ng RT175 topically daily) was “clearly accelerated” and the “treated wounds completely closed” value ([5]; 9 days after punch biopsy, 120 ng topically daily) was 80%. The “hair regeneration in the wound” value ([5]; 9 days after punch biopsy, intact follicles even in the middle of the wound) was “robust hair regeneration”, the “time for the other 20% of treated wounds to close” value ([5]; after day 9, 120 ng topically daily) was at most 18 h and the FKBP52 localisation [6] was “translocation of FKBP52 to the nucleus”. The “hair regeneration in the lesion” value [7] was “regeneration of hair”, the “lesion healing versus vehicle-treated lesion” value [7] was “early and transient appearance of granulation tissue, followed by rapid revascularization, invasion of newly formed skin from wound edges, accelerated repigmentation” and the hair regrowth [8] was “re-grow hair”.

For `Nc1cc(N2CCCCC2)nc(N)[n+]1[O-]` [minoxidil], the “treated individuals who maintained existing hair with no additional loss” value [9] is given as 50% and the “treated individuals with new hair growth” value ([9]; minoxidil treatment) is given as 15%.

In the case of `CCC(C)(C)C(=O)C(=O)N1CCCC1Cc1ccccc1` (stereo not shown) [RT1061], the hair growth [10] is reported as “rapid hair growth” and the skin regeneration [10] is reported as “rapid regeneration of rasped skin”.
